This passage reports Activity and inhibition results from ChEMBL document CHEMBL4257548, “Phenothiazine antioxidants increase mitochondrial biogenesis and frataxin levels in Friedreich's ataxia cells” (Medchemcomm, 2018).

In data set [1] the test system is GM15850. Description: Effect on mitochondrial membrane potential in human GM15850 cells assessed as loss of mitochondrial membrane potential at 0.25 uM after 16 hrs by JC1 staining based flow cytometry (reference value: 13%). The class given is functional.
The subject of data set [2] is GM16216. Nature of the data set: Increase in frataxin expression in human GM16216 cells at 250 nM after 24 to 48 hrs by ELISA. It is filed as functional, cell-based.
Data set [3] concerns GM16216. Description: Effect on ATP production in human GM16216 cells at 0.1 uM after 24 hrs by Vialight reagent based luminescence assay. It is filed as functional, cell-based.
The subject of data set [4] is GM15850. Description: Inhibition of ATP production in human GM15850 cells after 24 hrs by Vialight reagent based luminescence assay. It is filed as functional, cell-based.
Data set [5] relates to GM15850. Description: Effect on ATP production in human GM15850 cells at 0.1 uM after 24 hrs by Vialight reagent based luminescence assay. The class given is functional, cell-based.
The test system of data set [6] is GM15850. Nature of the data set: Cytotoxicity against human GM15850 cells at 2.5 uM after 24 to 48 hrs by live/dead staining-based flow cytometry. The class given is cell-based. The note with it: gm15850, 2.5 µM.
In data set [7] the test system is GM15850. Nature of the data set: Increase in frataxin expression in human GM15850 cells at 250 nM after 24 to 48 hrs by ELISA. It is filed as functional, cell-based.
The subject of data set [8] is GM15850. Description: Increase in frataxin expression in human GM15850 cells at 50 nM after 24 to 48 hrs by ELISA. It is filed as functional, cell-based.
Data set [9] relates to GM15850. Description: Effect on mitochondrial membrane potential in human GM15850 cells assessed as intact mitochondrial membrane at 0.25 uM after 16 hrs by JC1 staining based flow cytometry (reference value: 87%). The class given is functional.
The subject of data set [10] is GM16216. Description: Inhibition of ATP production in human GM16216 cells after 24 hrs by Vialight reagent based luminescence assay. It is filed as functional, cell-based.
Data set [11] has as its system GM16216. Description: Increase in frataxin expression in human GM16216 cells at 50 nM after 24 to 48 hrs by ELISA. The class given is functional, cell-based.
The subject of data set [12] is GM16216. Description: Effect on mitochondrial membrane potential in human GM16216 cells assessed as intact mitochondrial membrane at 0.25 uM after 16 hrs by JC1 staining based flow cytometry (reference value: 87%). It is filed as functional.
For data set [13], the system named is GM16216. Description: Cytotoxicity against human GM16216 cells at 2.5 uM after 24 to 48 hrs by live/dead staining-based flow cytometry. To be noted: gm16216, 2.5 µM. It is filed as cell-based.
Data set [14] has as its system GM16216. Nature of the data set: Effect on mitochondrial membrane potential in human GM16216 cells assessed as loss of mitochondrial membrane potential at 0.25 uM after 16 hrs by JC1 staining based flow cytometry (reference value: 13%). It is filed as functional.
For data set [15], the system named is GM15850. Description: Effect on frataxin expression in human GM15850 cells at 50 nM after 48 hrs by ELISA relative to control. The class given is functional.
The test system of data set [16] is GM16216. Description: Restoration of total aconitase activity in human GM16216 cells at 50 nM after 5 days by colorimetric method relative to control. It is filed as functional.
The test system of data set [17] is GM15850. Description: Induction of mitochondrial biogenesis in human GM15850 cells assessed as ratio of COX1 to SDH-A protein levels at 50 after 24 hrs by ELISA relative to control. The class given is functional.
Data set [18] relates to GM16216. Description: Effect on frataxin expression in human GM16216 cells at 50 nM after 48 hrs by ELISA relative to control. It is filed as functional.
In data set [19] the test system is GM16216. Description: Effect on frataxin expression in human GM16216 cells at 50 nM after 24 hrs by ELISA relative to control. The class given is functional.
Data set [20] relates to GM16216. Description: Induction of mitochondrial biogenesis in human GM16216 cells assessed as ratio of COX1 to SDH-A protein levels at 250 after 48 hrs by ELISA relative to control. The class given is functional.
Data set [21] has as its system GM16216. Description: Effect on frataxin expression in human GM16216 cells at 250 nM after 48 hrs by ELISA relative to control. It is filed as functional.
The subject of data set [22] is GM15850. Nature of the data set: Induction of mitochondrial biogenesis in human GM15850 cells assessed as ratio of COX1 to SDH-A protein levels at 250 after 24 hrs by ELISA relative to control. It is filed as functional.
The test system of data set [23] is GM15850. Description: Effect on frataxin expression in human GM15850 cells at 250 nM after 48 hrs by ELISA relative to control. It is filed as functional.
For data set [24], the system named is GM16216. Description: Restoration of total aconitase activity in human GM16216 cells at 250 nM after 5 days by colorimetric method relative to control. The class given is functional.
Data set [25] has as its system GM15850. Description: Restoration of total aconitase activity in human GM15850 cells at 250 nM after 5 days by colorimetric method relative to control. It is filed as functional.
Data set [26] relates to GM15850. Nature of the data set: Effect on frataxin expression in human GM15850 cells at 50 nM after 24 hrs by ELISA relative to control. It is filed as functional.
For data set [27], the system named is GM15850. Nature of the data set: Induction of mitochondrial biogenesis in human GM15850 cells assessed as ratio of COX1 to SDH-A protein levels at 250 after 48 hrs by ELISA relative to control. It is filed as functional.
In data set [28] the test system is GM15850. Nature of the data set: Induction of mitochondrial biogenesis in human GM15850 cells assessed as ratio of COX1 to SDH-A protein levels at 50 after 48 hrs by ELISA relative to control. It is filed as functional.
The test system of data set [29] is GM16216. Description: Induction of mitochondrial biogenesis in human GM16216 cells assessed as ratio of COX1 to SDH-A protein levels at 250 after 24 hrs by ELISA relative to control. It is filed as functional.
Data set [30] has as its system GM15850. Description: Effect on frataxin expression in human GM15850 cells at 250 nM after 24 hrs by ELISA relative to control. It is filed as functional.
Data set [31] has as its system GM16216. Nature of the data set: Induction of mitochondrial biogenesis in human GM16216 cells assessed as ratio of COX1 to SDH-A protein levels at 50 after 24 hrs by ELISA relative to control. It is filed as functional.
Data set [32] has as its system GM15850. Description: Restoration of total aconitase activity in human GM15850 cells at 50 nM after 5 days by colorimetric method relative to control. It is filed as functional.
Data set [33] relates to GM16216. Nature of the data set: Effect on frataxin expression in human GM16216 cells at 250 nM after 24 hrs by ELISA relative to control. The class given is functional.
The subject of data set [34] is GM16216. Description: Induction of mitochondrial biogenesis in human GM16216 cells assessed as ratio of COX1 to SDH-A protein levels at 50 after 48 hrs by ELISA relative to control. It is filed as functional.

Activity calls are given as the source filed them. No cut-off for these calls is given here.

Regarding `CCCCCCCCCCCc1cc2nc3ccc(N(C)C)cc3sc-2cc1=[N+](C)C.[I-]`, the Activity in the data set with GM15850 [1] was 18%; in the data set with GM15850 [6], “Toxic”; in the data set on GM15850 [9] it was 82%; in the data set with GM16216 [12] it was 82%; in the data set on GM16216 [13], “Toxic”; in the data set on GM16216 [14] it was 18%. Also, the outcome with GM16216 [2], in the data set on GM16216 [3], in the data set with GM15850 [5] and with GM15850 [7] was inactive. Further, the inhibition entry in the data set with GM15850 [4] and with GM16216 [10] was “Dose-dependent effect” throughout. In addition, the result in the data set with GM15850 [8] and with GM16216 [11] was Active.
With `CCCCCCCCCCCCCCCN(C)c1ccc2nc3ccc(=O)cc-3sc2c1`, the Activity in the data set on GM15850 [15] is 120%; in the data set with GM16216 [16], 116%; in the data set on GM15850 [17], 120%; in the data set on GM16216 [18], 120%; in the data set on GM16216 [19], 114%; in the data set with GM16216 [20], 137%. In addition, the Activity amounted to 127% in the data set with GM16216 [21]; 127% in the data set on GM15850 [22]; 127% in the data set with GM15850 [23]; 123% in the data set on GM16216 [24]; 123% in the data set with GM15850 [25]; 114% with GM15850 [26]. Further, the Activity with GM15850 [27] turned out to be 137%; with GM15850 [28], 128%; with GM16216 [29] it was 127%; in the data set with GM15850 [30] it was 118%; in the data set with GM16216 [31] it was 120%; with GM15850 [32], 116%. Also, the Activity stood at 118% in the data set with GM16216 [33] and 128% in the data set with GM16216 [34].
On to `CN(C)c1ccc2nc3ccc(N(C)C)cc3[s+]c2c1.[Cl-]` [METHYLENE BLUE ANHYDROUS], for which the Activity in the data set on GM15850 [1] was determined as 17%; in the data set with GM15850 [9], 83%; with GM16216 [12], 83%; in the data set on GM16216 [14] it was 17%.
As to `CCCCCCCCCCCCCCCN(CCCC)c1ccc2nc3ccc(=O)cc-3sc2c1`, the Activity with GM15850 [15] turned out to be 121%; in the data set with GM16216 [16] it was 115%; with GM15850 [17] it was 117%; in the data set with GM16216 [18], 121%; in the data set with GM16216 [19] it was 116%; with GM16216 [20], 137%. Also, the Activity with GM16216 [21] was found to be 127%; with GM15850 [22], 127%; in the data set on GM15850 [23], 127%; in the data set on GM16216 [24], 116%; with GM15850 [25] it was 116%; in the data set with GM15850 [26], 116%. For the same molecule, the Activity in the data set with GM15850 [27] was 137%; in the data set with GM15850 [28], 123%; with GM16216 [29], 127%; in the data set on GM15850 [30], 123%; in the data set on GM16216 [31], 117%; with GM15850 [32] it was 115%. Further, the Activity in the data set with GM16216 [33] and in the data set with GM16216 [34] was 123% in each case.
